Test results: ChEMBL document CHEMBL5678818, “Discovery of potent SOS1 inhibitors that block RAS activation via disruption of the RAS-SOS1 interaction” (Proc Natl Acad Sci U S A, 2019)

What was measured:
[1] = target: Activin receptor type-2A (Homo sapiens) (UniProt P27037); assay: Inhibition of ACVR2A (unknown origin) assessed as residual activity at 100 nM by KINOMEscan analysis relative to control
[2] = target: Aurora kinase B (Homo sapiens) (UniProt Q96GD4); assay: Inhibition of AURKB (unknown origin) assessed as residual activity at 100 nM by KINOMEscan analysis relative to control
Sequence of Aurora kinase B (Homo sapiens) (Q96GD4 whole entry): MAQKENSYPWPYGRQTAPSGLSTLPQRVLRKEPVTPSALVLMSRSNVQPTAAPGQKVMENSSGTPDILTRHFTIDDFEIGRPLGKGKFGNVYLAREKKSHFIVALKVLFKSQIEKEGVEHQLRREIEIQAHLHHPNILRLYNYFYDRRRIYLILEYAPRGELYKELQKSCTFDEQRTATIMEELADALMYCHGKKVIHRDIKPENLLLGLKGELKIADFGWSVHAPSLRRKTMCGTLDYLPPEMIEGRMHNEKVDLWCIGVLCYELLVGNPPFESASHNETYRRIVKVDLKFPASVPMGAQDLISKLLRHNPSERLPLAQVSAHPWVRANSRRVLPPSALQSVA

[3] = target: T1, Cytoplasmic tyrosine-protein kinase BMX (Homo sapiens) (UniProt P51813); assay: Inhibition of BMX (unknown origin) assessed as residual activity at 100 nM by KINOMEscan analysis relative to control
T1 sequence (whole entry): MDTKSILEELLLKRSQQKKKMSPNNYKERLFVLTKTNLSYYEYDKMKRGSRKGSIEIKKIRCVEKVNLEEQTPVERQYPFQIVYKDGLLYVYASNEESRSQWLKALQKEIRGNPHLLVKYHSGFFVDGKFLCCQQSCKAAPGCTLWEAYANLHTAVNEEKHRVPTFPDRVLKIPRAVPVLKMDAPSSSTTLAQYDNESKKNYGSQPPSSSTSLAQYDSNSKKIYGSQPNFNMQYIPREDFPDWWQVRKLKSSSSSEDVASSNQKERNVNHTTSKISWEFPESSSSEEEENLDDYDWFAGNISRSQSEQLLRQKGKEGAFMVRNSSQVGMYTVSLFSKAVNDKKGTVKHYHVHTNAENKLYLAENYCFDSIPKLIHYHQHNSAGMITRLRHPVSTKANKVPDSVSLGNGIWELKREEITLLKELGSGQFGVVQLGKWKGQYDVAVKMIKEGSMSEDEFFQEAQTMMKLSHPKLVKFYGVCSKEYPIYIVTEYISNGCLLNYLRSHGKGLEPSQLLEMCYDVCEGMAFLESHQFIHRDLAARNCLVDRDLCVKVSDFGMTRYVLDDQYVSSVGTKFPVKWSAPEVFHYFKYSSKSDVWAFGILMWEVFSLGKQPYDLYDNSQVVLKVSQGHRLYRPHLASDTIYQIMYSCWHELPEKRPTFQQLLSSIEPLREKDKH

[4] = target: Wee1-like protein kinase 2 (Homo sapiens) (UniProt P0C1S8); assay: Inhibition of WEE2 (unknown origin) assessed as residual activity at 100 nM by KINOMEscan analysis relative to control
Sequence of Wee1-like protein kinase 2 (Homo sapiens) (P0C1S8 whole entry, looked up): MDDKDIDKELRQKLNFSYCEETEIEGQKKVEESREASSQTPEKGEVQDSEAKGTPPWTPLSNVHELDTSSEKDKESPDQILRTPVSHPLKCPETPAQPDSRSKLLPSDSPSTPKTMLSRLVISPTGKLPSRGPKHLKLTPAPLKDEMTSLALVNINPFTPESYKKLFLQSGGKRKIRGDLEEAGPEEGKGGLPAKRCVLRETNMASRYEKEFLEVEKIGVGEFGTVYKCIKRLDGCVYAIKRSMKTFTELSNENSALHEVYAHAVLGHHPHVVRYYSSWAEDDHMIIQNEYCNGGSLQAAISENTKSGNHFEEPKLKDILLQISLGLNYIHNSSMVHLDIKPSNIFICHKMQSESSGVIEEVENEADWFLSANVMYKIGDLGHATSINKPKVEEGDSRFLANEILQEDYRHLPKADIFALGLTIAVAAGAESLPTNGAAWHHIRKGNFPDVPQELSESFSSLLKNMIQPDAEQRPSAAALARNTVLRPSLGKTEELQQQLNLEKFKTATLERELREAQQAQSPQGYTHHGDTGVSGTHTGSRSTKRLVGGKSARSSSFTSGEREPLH

[5] = target: Serine/threonine-protein kinase WNK3 (Homo sapiens) (UniProt Q9BYP7); assay: Inhibition of WNK3 (unknown origin) assessed as residual activity at 100 nM by KINOMEscan analysis relative to control
Sequence of Serine/threonine-protein kinase WNK3 (Homo sapiens) (Q9BYP7 whole entry): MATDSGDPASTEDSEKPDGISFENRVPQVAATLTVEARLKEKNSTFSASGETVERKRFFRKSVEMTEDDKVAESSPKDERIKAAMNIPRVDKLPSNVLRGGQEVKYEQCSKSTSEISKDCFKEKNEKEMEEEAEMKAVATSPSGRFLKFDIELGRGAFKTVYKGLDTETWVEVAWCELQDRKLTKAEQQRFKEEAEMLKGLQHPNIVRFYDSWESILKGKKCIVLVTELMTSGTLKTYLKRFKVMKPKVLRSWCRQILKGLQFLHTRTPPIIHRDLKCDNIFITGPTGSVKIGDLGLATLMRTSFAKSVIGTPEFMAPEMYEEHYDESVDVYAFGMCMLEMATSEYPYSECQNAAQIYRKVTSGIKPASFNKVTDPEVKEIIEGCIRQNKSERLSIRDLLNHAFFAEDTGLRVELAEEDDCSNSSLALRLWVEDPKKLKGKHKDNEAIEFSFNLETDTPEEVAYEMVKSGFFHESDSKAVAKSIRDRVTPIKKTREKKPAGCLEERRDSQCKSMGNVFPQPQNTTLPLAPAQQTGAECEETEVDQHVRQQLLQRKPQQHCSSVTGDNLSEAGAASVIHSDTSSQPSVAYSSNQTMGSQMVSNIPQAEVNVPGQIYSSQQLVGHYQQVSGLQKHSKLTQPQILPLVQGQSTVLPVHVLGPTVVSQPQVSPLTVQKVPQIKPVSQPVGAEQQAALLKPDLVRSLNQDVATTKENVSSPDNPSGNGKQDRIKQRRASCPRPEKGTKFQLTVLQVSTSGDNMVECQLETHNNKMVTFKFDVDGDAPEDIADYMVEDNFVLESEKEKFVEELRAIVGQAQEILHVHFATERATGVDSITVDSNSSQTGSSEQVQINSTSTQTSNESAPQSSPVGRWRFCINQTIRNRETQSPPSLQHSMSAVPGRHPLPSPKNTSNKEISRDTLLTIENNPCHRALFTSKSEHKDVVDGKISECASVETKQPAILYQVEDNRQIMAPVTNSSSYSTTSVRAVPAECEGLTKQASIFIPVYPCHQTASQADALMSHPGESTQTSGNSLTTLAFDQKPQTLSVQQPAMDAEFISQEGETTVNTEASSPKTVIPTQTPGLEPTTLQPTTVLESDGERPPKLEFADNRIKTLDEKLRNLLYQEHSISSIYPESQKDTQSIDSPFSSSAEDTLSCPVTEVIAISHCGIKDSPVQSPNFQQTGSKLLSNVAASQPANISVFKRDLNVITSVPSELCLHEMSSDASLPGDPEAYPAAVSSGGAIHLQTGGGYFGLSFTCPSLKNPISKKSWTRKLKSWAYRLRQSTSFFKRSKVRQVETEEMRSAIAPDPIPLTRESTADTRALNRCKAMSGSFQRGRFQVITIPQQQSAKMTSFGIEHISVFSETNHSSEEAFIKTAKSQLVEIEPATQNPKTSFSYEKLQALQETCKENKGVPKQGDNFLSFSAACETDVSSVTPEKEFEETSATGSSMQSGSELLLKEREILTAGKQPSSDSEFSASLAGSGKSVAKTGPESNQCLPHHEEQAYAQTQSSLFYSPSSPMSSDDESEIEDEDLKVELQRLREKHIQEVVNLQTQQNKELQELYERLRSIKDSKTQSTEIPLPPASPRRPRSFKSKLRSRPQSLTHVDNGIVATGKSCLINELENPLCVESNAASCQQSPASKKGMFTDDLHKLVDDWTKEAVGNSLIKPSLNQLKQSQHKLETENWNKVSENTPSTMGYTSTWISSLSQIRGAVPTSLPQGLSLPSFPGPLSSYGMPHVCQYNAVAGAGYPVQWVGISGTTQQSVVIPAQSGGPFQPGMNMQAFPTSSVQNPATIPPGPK

[6] = target: Calcium/calmodulin-dependent protein kinase type 1 (Homo sapiens) (UniProt Q14012); assay: Inhibition of CAMK1 (unknown origin) assessed as residual activity at 100 nM by KINOMEscan analysis relative to control
[7] = tested on: ALK tyrosine kinase receptor (Homo sapiens), Q9UM73 [L1196M]; assay: Inhibition of ALK L1196M mutant (unknown origin) assessed as residual activity at 100 nM by KINOMEscan analysis relative to control
Sequence of ALK tyrosine kinase receptor (Homo sapiens), Q9UM73 [L1196M] (Q9UM73 whole entry L1196M, looked up): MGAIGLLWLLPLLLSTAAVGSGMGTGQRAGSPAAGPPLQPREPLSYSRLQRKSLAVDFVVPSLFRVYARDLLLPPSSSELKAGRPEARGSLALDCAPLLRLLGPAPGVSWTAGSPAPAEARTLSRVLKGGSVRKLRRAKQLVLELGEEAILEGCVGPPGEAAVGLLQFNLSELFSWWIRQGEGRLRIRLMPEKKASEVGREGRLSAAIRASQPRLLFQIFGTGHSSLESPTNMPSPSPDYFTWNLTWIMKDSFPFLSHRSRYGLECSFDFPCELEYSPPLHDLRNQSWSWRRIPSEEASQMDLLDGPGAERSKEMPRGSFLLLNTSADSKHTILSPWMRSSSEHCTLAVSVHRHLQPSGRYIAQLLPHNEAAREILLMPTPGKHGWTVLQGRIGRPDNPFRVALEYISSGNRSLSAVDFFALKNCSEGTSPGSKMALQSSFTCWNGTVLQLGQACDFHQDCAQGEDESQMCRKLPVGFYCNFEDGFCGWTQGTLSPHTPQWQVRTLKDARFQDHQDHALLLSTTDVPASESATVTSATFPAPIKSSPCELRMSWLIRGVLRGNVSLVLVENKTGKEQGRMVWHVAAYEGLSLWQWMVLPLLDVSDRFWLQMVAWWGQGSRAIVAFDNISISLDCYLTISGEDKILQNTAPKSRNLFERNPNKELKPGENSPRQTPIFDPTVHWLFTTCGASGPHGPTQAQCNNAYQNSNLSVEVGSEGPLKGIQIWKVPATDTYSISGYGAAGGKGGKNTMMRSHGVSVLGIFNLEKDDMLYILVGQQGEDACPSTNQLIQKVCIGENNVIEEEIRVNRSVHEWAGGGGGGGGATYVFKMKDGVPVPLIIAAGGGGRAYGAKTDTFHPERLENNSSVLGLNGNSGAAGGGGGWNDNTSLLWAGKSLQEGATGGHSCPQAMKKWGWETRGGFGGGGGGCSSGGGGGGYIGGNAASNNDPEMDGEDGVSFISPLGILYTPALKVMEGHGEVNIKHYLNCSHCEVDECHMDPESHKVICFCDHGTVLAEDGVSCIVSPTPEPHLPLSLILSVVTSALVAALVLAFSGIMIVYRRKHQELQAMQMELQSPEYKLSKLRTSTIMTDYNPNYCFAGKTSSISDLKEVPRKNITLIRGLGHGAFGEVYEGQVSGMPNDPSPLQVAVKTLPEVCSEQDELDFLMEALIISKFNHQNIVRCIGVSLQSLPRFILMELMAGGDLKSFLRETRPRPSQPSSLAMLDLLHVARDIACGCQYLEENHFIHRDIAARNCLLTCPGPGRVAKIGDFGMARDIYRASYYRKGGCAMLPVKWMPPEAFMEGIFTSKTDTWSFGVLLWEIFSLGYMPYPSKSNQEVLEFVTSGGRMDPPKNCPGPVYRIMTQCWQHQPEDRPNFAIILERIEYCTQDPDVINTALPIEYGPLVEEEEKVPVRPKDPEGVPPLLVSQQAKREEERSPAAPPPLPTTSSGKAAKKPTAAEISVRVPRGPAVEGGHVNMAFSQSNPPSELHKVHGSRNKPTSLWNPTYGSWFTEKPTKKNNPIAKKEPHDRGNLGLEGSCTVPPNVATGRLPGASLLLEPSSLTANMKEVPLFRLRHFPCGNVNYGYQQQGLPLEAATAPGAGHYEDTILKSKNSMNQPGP

[8] = species on record: Homo sapiens; assay: Inhibition of JNK3 (unknown origin) assessed as residual activity at 100 nM by KINOMEscan analysis relative to control
[9] = target: Myosin light chain kinase, smooth muscle (Homo sapiens) (UniProt Q15746); assay: Inhibition of MYLK (unknown origin) assessed as residual activity at 100 nM by KINOMEscan analysis relative to control

Sequence of Activin receptor type-2A (Homo sapiens) (P27037 whole entry): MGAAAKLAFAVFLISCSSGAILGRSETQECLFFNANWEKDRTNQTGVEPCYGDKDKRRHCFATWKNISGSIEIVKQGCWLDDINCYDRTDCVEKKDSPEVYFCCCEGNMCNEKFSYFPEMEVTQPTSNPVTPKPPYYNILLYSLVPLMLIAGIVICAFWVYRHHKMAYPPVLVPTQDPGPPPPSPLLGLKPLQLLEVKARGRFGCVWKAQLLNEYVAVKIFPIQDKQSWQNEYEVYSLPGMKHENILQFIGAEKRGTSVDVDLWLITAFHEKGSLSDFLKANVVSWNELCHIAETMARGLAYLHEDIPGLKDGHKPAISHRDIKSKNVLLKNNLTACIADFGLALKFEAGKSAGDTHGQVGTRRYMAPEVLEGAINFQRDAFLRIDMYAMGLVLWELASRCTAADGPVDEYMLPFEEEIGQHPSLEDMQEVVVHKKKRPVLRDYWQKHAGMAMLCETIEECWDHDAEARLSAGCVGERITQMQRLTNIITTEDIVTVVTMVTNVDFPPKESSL

COc1cc2ncnc(N[C@H](C)c3cccc4ccccc34)c2cc1OC
Activity [1]: 94% | Activity [2]: 96% | Activity [3]: 79% | Activity [4]: 100% | Activity [5]: 89% | Activity [6]: 100% | Activity [7]: 66% | Activity [8]: 77% | Activity [9]: 69%
